{"source": "patent US9555137B2", "about": "“Uses of labeled HSP90 inhibitors” (Sloan-Kettering Institute for Cancer Research, priority 2011, dated 2017)", "key": {"HSP90 [1]": {"system": "HSP90", "test": "concomitant binding to HSP90 and streptavidin in live K562 cells", "type": "cell-based", "details": "for binding in live K562 cells: 100 μM, 4 h; for HSP90-streptavidin binding with K562 cells: live K562 cells", "from_the_text": "Having shown that some of the molecules bind concomitantly to HSP90 and streptavidin, we next investigated whether this can similarly be accomplished in live cells."}, "HSP90 [2]": {"system": "HSP90", "test": "131I-PU-H71 saturation binding in intact cancer cells", "type": "cell-based", "details": "MDA-MB-468 cells", "text": "The solutions were shaken in an orbital shaker and after 1 hr the cells were isolated and washed with ice cold Tris-buffered saline using a Brandel cell harvester. […] To calculate the percentage of HSP90, cellular HSP90 expression was quantified by using standard curves created of recombinant HSP90 purified from HeLa cells (Stressgen#ADI-SPP-770)."}, "in vivo": {"test": "in vivo", "details": "3×Tg AD, mouse, ip, 50 mg/kg, AUC 0 to 48 h", "text": "(§1) We next determined in the brain and plasma of 3×Tg AD mice, the HSP90 inhibitor levels associated with these pharmacodynamic effects (FIG. 43C)."}, "[3]": {"details": "mouse, in vivo", "text": "as §1"}, "AML cell lines": {"system": "AML cell lines", "test": "cell killing and apoptosis in AML cell lines (Acridine Orange/Ethidium Bromide)", "type": "cell-based, human", "details": "cultured HEL cells", "procedure": "To evaluate the sensitivity spectrum of AML cell lines to HSP90 inhibitors, and to investigate a possible relationship between their genetic background and induction of apoptosis by HSP90 therapy, we made use of a varied cell panel. […]\nA ten-fold, in MOLM-13 and M0-91, and two-fold, in Kasumi-1 and SKNO-1, increase in caspase-3,7 activation was observed as early as 24 h. Essentially no live cells were detected for the M0-91 cell line after 48 h of HSP90 inhibitor treatment. […]\nCells were treated for 24, 48 or 72 h with vehicle (DMSO) or inhibitors as indicated. Following staining with Acridine Orange and Ethidium Bromide (1:1 mix of 100 µg/ml), cells were visualized with a fluorescent microscope (Zeiss Axiovert 40 CFL) and counted. Percentage of apoptotic cells was determined from 200-300 cells counted in each group. The percentage of apoptotic cells was calculated as: % Apoptotic cells=(total number of cells with apoptotic nuclei/total number of cells counted)×100."}, "[4]": {"test": "[124I]-PU-H71 PET in cancer patients, tumor exposure to PU-H71", "type": "in vivo, human", "details": "human blood circulation"}, "MOLM-13 cells": {"system": "MOLM-13 cells", "type": "cell-based, human"}, "oncogenic HSP90 [5]": {"system": "oncogenic HSP90", "test": "PU-FITC binding in primary leukemia samples, blasts relative to normal lymphocytes (flow cytometry)", "type": "cell-based, human", "details": "blast crisis CML (bcCML) cells"}, "oncogenic HSP90 [6]": {"system": "oncogenic HSP90", "test": "PU-FITC binding to EpCAM+ circulating tumor cells relative to leukocytes", "type": "cell-based, human", "details": "patient with HER2+ metastatic breast cancer", "procedure": "FIG. 20. PU-H71-FITC2 accumulation in EpCAM+ Circulating Tumor Cells: PBMC's isolated from whole blood were pre-treated with PU-FITC or controls (PU-FITC9, DMSO, 1 μM/2×10^6 cells/ml, 4 hrs). Cells were then stained with CD45, CD14 and EpCAM antibodies. (A) Cells are gated to exclude dead cells. Viable cells are then gated to determine EpCAM+ vs CD45+ cells. Monocytes are excluded from the analysis by gating the CD45+ cells further as FSC vs. CD14. (B) Histogram plots showing the PU-FITC Median florescence intensity (MFI) of CD45+CD14− cells (blue) and EpCAM+ cells (Red). The drug accumulation in EpCAM+ cells is calculated as the ratio of MFI EpCAM+/MFI CD45+CD14− (circulating tumor cells/leukocytes) after subtracting the values of the DMSO and PU-FITC9 controls (used to control for non-specific and background binding). […]\nAll experimental blood sampling procedures were performed under the Institutional Review Board-approved protocols at Memorial Sloan Kettering Cancer Center. […] PBMC's are isolated on ficoll gradients, cells are counted and viability determined by trypan blue dye exclusion assay. […] Values are calculated as a ratio of the MFI of Tumor (EpCAM+CD45−CD14−): MFI of EpCAM−CD45+CD14− cells. […] This allows quantitation of the FITC fluorescence intensity in molecules of equivalent soluble fluorochrome (MESF units). […]"}}, "note": "Like-named read-outs stand apart in the source and are kept apart here.", "data": [{"smiles": "Nc1ncnc2c1nc(Sc1cc3c(cc1I)OCO3)n2CCCNC(=O)CCOCCOCCOCCOCCNC(=O)CCCC[C@@H]1SC[C@@H]2NC(=O)N[C@@H]21", "note": "[PU-H71-biotin6]", "values": [{"measurement": "band at approximately 90 kDa in live K562 cells", "setting": "HSP90 [1]; 0.5 μM", "value": "still shows a faint band"}, {"measurement": "binding in live K562 cells", "setting": "HSP90 [1]", "value": "able to permeate the cell membrane"}, {"measurement": "HSP90-streptavidin binding with K562 cells", "setting": "HSP90 [1]", "value": "Yes"}]}, {"smiles": "Nc1ncnc2c1nc(Sc1cc3c(cc1I)OCO3)n2CCCNC(=O)CCCC[C@@H]1SC[C@@H]2NC(=O)N[C@@H]21", "note": "[PU-H71-biotin3]", "values": [{"measurement": "HSP90-streptavidin binding with K562 cells", "setting": "HSP90 [1]", "value": "No"}]}, {"smiles": "CC(C)NCCCn1c(Sc2cc3c(cc2[131I])OCO3)nc2c(N)ncnc21", "note": "[^131I-PU-H71]", "values": [{"measurement": "available cellular binding sites bound per cell", "setting": "HSP90 [2]", "value": "≤ 5.5×10^6"}, {"measurement": "fraction of total cellular HSP90 bound", "setting": "HSP90 [2]", "value": "26.6-33.5%"}]}, {"smiles": "CC(C)(C)CNCCn1c(Sc2cc3c(cc2I)OCO3)nc2c(N)ncnc21", "note": "[PU-HZ151]", "values": [{"measurement": "AUC(0-t)", "setting": "in vivo; exposure of the cortex", "value": 17.5, "unit": "µM·h"}, {"measurement": "AUC(0-t)", "setting": "in vivo; exposure of the plasma", "value": 7.1, "unit": "µM·h"}, {"measurement": "cortex AUC relative to plasma AUC", "setting": "[3]", "value": 2.5, "unit": "times"}]}, {"smiles": "Nc1ncnc2c1nc(Sc1cc3c(cc1I)OCO3)n2CCCNC(=O)CCCCCNC(=O)CCCC[C@@H]1SC[C@@H]2NC(=O)N[C@@H]21", "note": "[PU-H71-biotin4]", "values": [{"measurement": "HSP90-streptavidin binding with K562 cells", "setting": "HSP90 [1]", "value": "No"}]}, {"smiles": "O=c1[nH]c2ccccc2n1C1CCN(Cc2ccc(-c3nc4cc5[nH]cnc5cc4nc3-c3ccccc3)cc2)CC1", "note": "[AKTi]", "values": [{"measurement": "cells committed to undergo apoptosis", "setting": "AML cell lines", "value": "little to no effect"}]}, {"smiles": "Nc1ncnc2c1nc(Sc1cc3c(cc1I)OCO3)n2CCCNC(=O)CCCCCNC(=O)CCCCCNC(=O)CCCC[C@@H]1SC[C@@H]2NC(=O)N[C@@H]21", "note": "[PU-H71-biotin5]", "values": [{"measurement": "binding in live K562 cells", "setting": "HSP90 [1]", "value": "able to permeate the cell membrane"}, {"measurement": "HSP90-streptavidin binding with K562 cells", "setting": "HSP90 [1]", "value": "Yes"}]}, {"smiles": "CC(C)NCCCn1c(Sc2cc3c(cc2[124I])OCO3)nc2c(N)ncnc21", "note": "[[^124I]-PU-H71]", "values": [{"measurement": "tumor uptake from ROI analysis", "setting": "4 h", "value": "0.35±0.07", "unit": "% ID/g"}, {"measurement": "activity in ROI circumscribing the entire mouse", "setting": "4 h PET", "value": "40-50 % of the administered activity"}, {"measurement": "concentration in tumor relative to bone", "setting": "4 h p.a.", "value": 9, "unit": "fold"}, {"measurement": "concentration in tumor relative to brain", "setting": "4 h p.a.", "value": 40, "unit": "fold"}, {"measurement": "concentration in tumor relative to heart", "setting": "4 h p.a.", "value": 10, "unit": "fold"}, {"measurement": "concentration in tumor relative to muscle", "setting": "4 h p.a.", "value": 18, "unit": "fold"}, {"measurement": "concentration in tumor relative to spleen", "setting": "4 h p.a.", "value": 6, "unit": "fold"}, {"measurement": "[Atumor] activity concentration in tumor", "setting": "24 h", "value": "~0.14±0.05", "unit": "% ID/g"}, {"measurement": "tumor uptake from ROI analysis", "setting": "24 h", "value": "0.083±0.02", "unit": "% ID/g"}, {"measurement": "tumor uptake from ROI analysis", "setting": "48 h", "value": "0.058±0.02", "unit": "% ID/g"}, {"measurement": "tumor uptake from ROI analysis", "setting": "72 h", "value": "0.031±0.01", "unit": "% ID/g"}, {"measurement": "tumor uptake from ROI analysis", "setting": "100 h", "value": "0.024±0.008", "unit": "% ID/g"}, {"measurement": "maximum thyroid activity", "setting": "between 4 and 28 h, no potassium iodide", "value": "< 0.4 % of the administered activity"}, {"measurement": "tumor-to-blood activity concentration ratio", "setting": "by ~12 h postinjection", "value": "≥ 10"}, {"measurement": "time by which cleared from MDA-MB-468 tumors", "setting": "post-administration", "value": "≤ 150", "unit": "h"}, {"measurement": "blood t1/2, rapid clearance", "setting": "[4]", "value": "≈ 20 min"}]}, {"smiles": "Nc1ncnc2c1nc(Sc1cc3c(cc1I)OCO3)n2CCCNCCOCCOCCOCCNC(=O)CCCC[C@@H]1SC[C@@H]2NC(=O)N[C@@H]21", "note": "[PU-H71-biotin]", "values": [{"measurement": "HSP90-streptavidin binding with K562 cells", "setting": "HSP90 [1]", "value": "No"}]}, {"smiles": "CC(C)N(CCCn1c(Sc2cc3c(cc2I)OCO3)nc2c(N)ncnc21)C(=S)Nc1ccc(-c2c3ccc(=O)cc-3oc3cc(O)ccc23)c(C(=O)O)c1", "note": "[PU-H71-FITC2]", "values": [{"measurement": "viability of MOLM-13 cells", "setting": "MOLM-13 cells", "value": "decrease the viability of MOLM-13 cells"}, {"measurement": "binding relative to normal lymphocytes", "setting": "oncogenic HSP90 [5]", "value": "over 4 fold"}, {"measurement": "binding of circulating tumor cells relative to leukocytes (CD45+CD14−)", "setting": "oncogenic HSP90 [6]", "value": "around 84 fold"}]}, {"smiles": "CC(C)N(CCCn1c(Sc2cc3c(cc2I)OCO3)nc2c(N)ncnc21)C(=O)CCOCCOCCOCCOCCNC(=O)CCCC[C@@H]1SC[C@@H]2NC(=O)N[C@@H]21", "note": "[PU-H71-biotin9]", "values": [{"measurement": "binding in live K562 cells", "setting": "HSP90 [1]", "value": "able to permeate the cell membrane"}, {"measurement": "HSP90-streptavidin binding with K562 cells", "setting": "HSP90 [1]", "value": "Yes"}]}, {"smiles": "CC(C)N(CCCn1c(Sc2cc3c(cc2I)OCO3)nc2c(N)ncnc21)C(=O)CCCCCNC(=O)CCCCCNC(=O)CCCC[C@@H]1SC[C@@H]2NC(=O)N[C@@H]21", "note": "[PU-H71-biotin8]", "values": [{"measurement": "binding in live K562 cells", "setting": "HSP90 [1]", "value": "able to permeate the cell membrane"}, {"measurement": "HSP90-streptavidin binding with K562 cells", "setting": "HSP90 [1]", "value": "Yes"}]}, {"smiles": "CC(C)N(CCCn1c(Sc2cc3c(cc2I)OCO3)nc2c(N)ncnc21)C(=O)CCCCCNC(=O)CCCC[C@@H]1SC[C@@H]2NC(=O)N[C@@H]21", "note": "[PU-H71-blotin7]", "values": [{"measurement": "HSP90-streptavidin binding with K562 cells", "setting": "HSP90 [1]", "value": "No"}]}, {"smiles": "CC(C)N(CCCn1c(Sc2cc3c(cc2I)OCO3)nc2c(N)ncnc21)C(=O)CCCC[C@@H]1SC[C@@H]2NC(=O)N[C@@H]21", "note": "[PU-H71-biotin2]", "values": [{"measurement": "HSP90-streptavidin binding with K562 cells", "setting": "HSP90 [1]", "value": "No"}]}]}
